Experiment [1] concerns the target human full length His-tagged BTK (Homo sapiens (Human), UniProt Q06187). Put plainly: BTK Lanthscreen Eu Kinase Binding assay. Particulars: TR-FRET tracer displacement, 2 nM BTK, 30 min pre-incubation. The protocol: BTK Lanthscreen® Eu Kinase Binding assay:
A Lanthscreen® Eu Kinase Binding assay (Life Technologies) was performed to quantitate the ability of test compounds to bind to BTK. The assay is based on the binding and displacement of Alexa Fluor647-labeled Kinase Tracer #236 to the ATP-binding site of human full length His-tagged BTK (Life Technologies cat # PV3587) with TR-FRET detection using a europium-labeled anti-His antibody. The assay was assembled in 384-well low volume NBS black plates (Corning) where 2 nM BTK and test compound in DMSO at varying concentrations were pre-incubated for 30 min at 28° C. in assay buffer consisting of 50 mM HEPES, pH 7.4, 10 mM MgCl2, 1 mM EGTA. 100 μM Na3VO4 and 0.01% Brij 35. Then, 2 nM of Eu-anti His antibody and 30 nM Kinase Tracer were added and incubated for […] at 28° C. Following incubation, TR-FRET signal was read on an Envision plate reader (Excitation: 340 nm; Emissions: 615 and 665 nm). The 665: 615 nm emission ratio was calculated and converted to POC compared to control and blank wells.

For a further experiment, the target named is EGFR (Homo sapiens (Human), UniProt P00533). Put plainly: Inhibition of EGFR autophosphorylation in A431 human epithelial cells stimulated with epithelial growth factor. It counts as cell-based. To be noted: 16 hours compound, EGF 60 ng/mL 10 minutes, read-out: A431 p-EGFR IC50. The protocol:
Inhibition of EGFR Autophosphorylation in A431 Human Epithelial Cells Stimulated with Epithelial Growth Factor
A431 cells (ATCC # CRL-1555 FZ) are thawed and plated in DMEM containing 10% FBS in a 384-well tissue culture treated plate at 15,000 cells/well. After incubating for 24 hours at 37° C., 5% CO2, the cells are treated with test compound (1% DMSO final concentration) and incubated for 16 hours at 37° C., 5% CO2. EGF (Millipore, 01-107) is added at a final concentration of 60 ng/mL and incubated for 10 minutes. The medium is removed, the cells are lysed, and phospho EGFR is measured (Meso Scale Diagnostics, N31CB-1).
(§1) The compounds described herein show a range of selectivity against EGFR as measured in cellular assays (BTK activity measured by IL-6 production in primary CD19^+ cells; EGFR activity measured by EGFR phosphorylation in A431 cells).

For another experiment, the target named is BTK (Homo sapiens (Human), UniProt Q06187). Put plainly: Inhibition of IL-6 production in B cells co-stimulated with ODN 2006 and anti-hIgD. It counts as cell-based. Particulars: primary CD19+ B cells, anti-human IgD + ODN 2006 stimulation, 18-24 hours; read-out: B-cell IL-6 IC50. The protocol: Inhibition of IL-6 Production in B Cells Co-Stimulated with ODN 2006 and Anti-hIgD
Sequence of BTK (Q06187 whole entry): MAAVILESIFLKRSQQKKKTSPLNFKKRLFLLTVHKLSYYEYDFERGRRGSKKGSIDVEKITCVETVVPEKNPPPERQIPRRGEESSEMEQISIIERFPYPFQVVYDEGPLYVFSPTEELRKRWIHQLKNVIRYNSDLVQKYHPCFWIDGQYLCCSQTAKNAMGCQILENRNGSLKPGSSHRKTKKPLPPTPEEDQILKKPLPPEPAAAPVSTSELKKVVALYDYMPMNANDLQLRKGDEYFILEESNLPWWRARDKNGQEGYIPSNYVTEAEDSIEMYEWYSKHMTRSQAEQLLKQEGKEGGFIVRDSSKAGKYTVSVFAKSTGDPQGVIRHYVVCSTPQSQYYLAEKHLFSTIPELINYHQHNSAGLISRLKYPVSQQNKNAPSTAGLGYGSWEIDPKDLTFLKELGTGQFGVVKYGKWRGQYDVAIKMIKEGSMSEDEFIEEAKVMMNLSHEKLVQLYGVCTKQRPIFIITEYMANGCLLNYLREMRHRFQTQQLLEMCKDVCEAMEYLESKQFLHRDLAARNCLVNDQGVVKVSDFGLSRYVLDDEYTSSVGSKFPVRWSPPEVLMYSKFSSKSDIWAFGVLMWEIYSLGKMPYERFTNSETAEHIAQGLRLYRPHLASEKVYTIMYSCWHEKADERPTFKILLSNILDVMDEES
Primary CD19+ B cells (AllCells # PB010F) are thawed and plated in RPMI containing 10% HI FBS in a 384-well tissue cultured plate at 20,000 cells/well. The cells are treated with test compound (0.5% DMSO final concentration) and incubated for 1 hour at 37° C., 5% CO2. Cells are then stimulated with 5 μg/mL Goat F(ab′)2 anti-human IgD (SouthernBiotech #2032) and 2 uM ODN 2006 (InvivoGen # till-2006) and incubated for 18-24 hours at 37° C., 5% CO2. IL-6 in the supernatant is measured using Meso Scale Discovery kit # K211AKB-6.
as §1

This note sets out measurements from patent US10570118B2, “Isoquinolones as BTK inhibitors” (Boehringer Ingelheim International GmbH, priority 2016, dated 2020).

Sequence of EGFR (P00533 25-1210): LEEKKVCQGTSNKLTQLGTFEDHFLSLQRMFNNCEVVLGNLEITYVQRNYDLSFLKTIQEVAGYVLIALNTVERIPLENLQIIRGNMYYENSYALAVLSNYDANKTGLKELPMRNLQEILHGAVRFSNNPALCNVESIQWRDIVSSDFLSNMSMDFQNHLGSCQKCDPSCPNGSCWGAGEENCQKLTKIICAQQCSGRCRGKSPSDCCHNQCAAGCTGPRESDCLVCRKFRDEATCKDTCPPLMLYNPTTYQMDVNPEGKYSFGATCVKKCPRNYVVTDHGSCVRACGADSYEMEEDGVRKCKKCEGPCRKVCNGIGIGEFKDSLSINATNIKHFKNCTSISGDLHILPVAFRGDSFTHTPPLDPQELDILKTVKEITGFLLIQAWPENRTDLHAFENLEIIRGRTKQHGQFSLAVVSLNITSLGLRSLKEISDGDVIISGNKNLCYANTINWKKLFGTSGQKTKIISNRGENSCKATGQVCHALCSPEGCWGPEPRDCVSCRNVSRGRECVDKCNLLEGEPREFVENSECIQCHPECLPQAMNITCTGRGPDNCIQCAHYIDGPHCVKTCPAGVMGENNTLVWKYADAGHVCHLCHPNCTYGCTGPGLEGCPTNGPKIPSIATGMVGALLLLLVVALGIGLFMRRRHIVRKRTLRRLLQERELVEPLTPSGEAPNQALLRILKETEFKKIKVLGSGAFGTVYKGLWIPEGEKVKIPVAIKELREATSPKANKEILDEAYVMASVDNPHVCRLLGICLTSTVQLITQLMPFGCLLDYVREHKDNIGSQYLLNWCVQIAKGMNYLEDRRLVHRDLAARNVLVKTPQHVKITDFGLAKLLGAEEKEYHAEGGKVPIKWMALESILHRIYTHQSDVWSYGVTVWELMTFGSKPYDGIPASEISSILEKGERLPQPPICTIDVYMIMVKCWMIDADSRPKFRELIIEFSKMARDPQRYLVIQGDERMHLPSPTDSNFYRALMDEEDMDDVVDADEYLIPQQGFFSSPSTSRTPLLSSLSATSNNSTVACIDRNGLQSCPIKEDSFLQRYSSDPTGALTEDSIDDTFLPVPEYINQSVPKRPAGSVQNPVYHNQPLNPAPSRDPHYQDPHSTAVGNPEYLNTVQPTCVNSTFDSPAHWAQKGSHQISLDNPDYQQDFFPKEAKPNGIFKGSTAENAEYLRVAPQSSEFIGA
Sequence of human full length His-tagged BTK (Q06187 whole entry): as the sequence (Q06187 whole entry) above

In the case of `C=CC(=O)N1CC(c2cc3cc(C4CC4)cc(F)c3c(=O)n2-c2cccc(-c3cc(C(N)=O)n(C)c3)c2CO)C1` [Example 40], the values for the IC50 (in experiment [1]; on EGFR; on BTK) were 0.42 nM, > 10000 nM and 4.6 nM, respectively.
